Experimental data published in patent US8299262B2, “Pyridylmethyl-sulfonamide compounds” (BASF SE, priority 2007, dated 2012).
Read-outs that look alike come from different tables or passages of the source.

Experiments:
[1] = system: Thielaviopsis basicola; experiment: Synergistic mixtures, microtiter test, Thielaviopsis basicola (Use Example 31); type: cell-based; conditions: single compound
[2] = system: Pyrenophora teres; experiment: Synergistic mixtures, microtiter test, net blotch pathogen Pyrenophora teres (Use Example 29); type: cell-based; conditions: single compound
[3] = system: Alternaria solani; experiment: Synergistic mixtures, microtiter test, early blight pathogen Alternaria solani (Use Example 24); type: cell-based; conditions: single compound, 0.063 ppm
[4] = system: Fusarium culmorum; experiment: Synergistic mixtures, microtiter test, Fusarium culmorum (Use Example 27); type: cell-based; conditions: single compound, 16 ppm
[5] = system: Septoria glycines; experiment: Microtiter test, Septoria glycines (Use Example 7); type: cell-based; conditions: 125 ppm; control =100%, day 7
[6] = system: Gaeumannomyces graminis; experiment: Synergistic mixtures, microtiter test, Gaeumannomyces graminis (Use Example 30); type: cell-based; conditions: single compound
[7] = system: Septoria tritici; experiment: Synergistic mixtures, microtiter test, leaf blotch pathogen Septoria tritici (Use Example 26); type: cell-based; conditions: single compound, 4 ppm
[8] = system: Pyricularia oryzae; type: cell-based; conditions: single compound
[9] = system: Verticillium dahliae; conditions: single compound, 4 ppm
[10] = system: Fusarium oxysporum; conditions: single compound, 16 ppm
[11] = system: Colletotrichum truncatum; experiment: Synergistic mixtures, microtiter test, Colletotrichum truncatum (Use Example 28); type: cell-based; conditions: single compound, 16 ppm
[12] = system: Puccinia recondita; experiment: Synergistic mixtures, greenhouse, preventative control of brown rust on wheat caused by Puccinia recondita (Use Example 34); type: in vivo; conditions: single compound, untreated control 90% disease
Experimental: These percentages were converted into efficacies. An efficacy of 0 means that the growth level of the pathogens corresponds to that of the untreated control; an efficacy of 100 means that the pathogens were not growing.
The expected efficacies of active compound mixtures were determined using Colby's formula [R. S. Colby, Calculating synergistic and antagonistic responses of herbicide combinations, Weeds 15, 20-22 (1967)] and compared with the observed efficacies. E=x+y−x·y/100 Colby's formula • E expected efficacy, expressed in % of the untreated control, when using the mixture of the compounds A and B at the concentration a and b • x efficacy, expressed in % of the untreated control, when using compound A at a concentration of a • y efficacy, expressed in % of the untreated control, when using compound B at a concentration of b A) Microtiter Tests
The spray solutions were prepared in several steps:
The stock solution were prepared as follows: a mixture of acetone and/or dimethylsulfoxide and the wetting agent/emulsifier Wettol, which is based on ethoxylated alkylphenoles, in a relation (volume) solvent-emulsifier of 99 to 1 was added to 25 mg of the compound to give a total of 10 ml. Water was then added to total volume of 100 ml.
This stock solution was diluted with the described solvent-emulsifier-water mixture to the given concentration. The compounds pyraclostrobin, boscalid and epoxiconazole were used as commercial finished formulations and diluted with water to the stated concentration of the active compound.
The first two developed leaves of pot-grown wheat seedling were sprayed to run-off with an aqueous suspension, containing the concentration of active ingredient or their mixture as described below. The next day the plants were inoculated with spores of Puccinia recondita. To ensure the success the artificial inoculation, the plants were transferred to a humid chamber without light and a relative humidity of 95 to 99% and at temperatures between 20 and 24° C. for 24 h. Then, the plants were cultivated for 6 days in a greenhouse chamber at 20 to 24° C. and a relative humidity between 65 and 70%. The extent of fungal attack on the leaves was visually assessed as % diseased leaf area.

| SMILES | Observed efficacy (%) ([1]; 4 ppm) | Observed efficacy (%) ([1]; 16 ppm) | Observed efficacy (%) ([2]; 0.25 ppm) | Observed efficacy (%) ([2]; 1 ppm) | Observed efficacy (%) [3] | Observed efficacy (%) [4] | relative growth of the pathogen [5] | Observed efficacy (%) ([6]; 0.063 ppm) | Observed efficacy (%) [7] | Observed efficacy (%) ([8]; 0.063 ppm) | Observed efficacy (%) ([8]; 0.25 ppm) | Observed efficacy (%) ([1]; 1 ppm) | Observed efficacy (%) [9] | Observed efficacy (%) [10] | Observed efficacy (%) [11] | Observed efficacy (%) ([12]; 4 ppm) | Observed efficacy (%) ([12]; 16 ppm) | Observed efficacy (%) ([6]; 0.016 ppm) |
| --- | --- | --- | --- | --- | --- | --- | --- | --- | --- | --- | --- | --- | --- | --- | --- | --- | --- | --- |
| COc1cnccc1CNS(=O)(=O)c1ccc(Oc2ccccn2)cc1 [Example 8] | 11% | 6% | 0% | 9% | 3% | 0% | at most 25% | 0% | – | – | – | – | – | – | – | – | – | – |
| Cc1nccc(CNS(=O)(=O)c2ccc(Oc3ncc(C(F)(F)F)cc3Cl)cc2)c1C [Example 27] | 21% | – | – | 31% | – | 0% | – | – | 47% | 65% | 65% | 1% | 56% | 13% | 45% | 0% | 22% | 58% |
